In patent publication US20130197023A1, “NEUROPROTECTION BY PHARMACOLOGICAL CHAPERONING OF NICOTINIC ACETYLCHOLINE RECEPTORS” (priority 2012, published 2013):

Columns and labels:
ATF6 = assay type: cell-based, mouse
Protocol: (§1) Mouse Neuro-2a cells were cultured using standard tissue culture techniques and maintained in 45% DMEM, 45% OptiMEM and 10% FBS. Plasmid concentrations used for transfection were as follows: 500 ng of each nAChR subunit, 75 ng of pCS2-mcherry, 250 ng of Sec24D constructs, 100 ng of pDsRed2-ER, 250 ng of GaIT-eCFP and 500 ng of ATF6-eGFP. 90,000 cells were plated in poly-D-lysine coated 35 mm MatTek glass bottom imaging dishes. The following day, plasmid DNA was mixed with cationic lipids by adding appropriate DNA concentrations to 4 μl of Expressfect transfection reagent in 200 μl DMEM final volume and incubated for 20 min at room temperature to form cationic lipid-DNA complexes. DMEM+DNA-lipid complexes were added to Neuro-2a cells in 1 ml of DMEM+10% FBS and incubated at 37° C. for 4 h. Dishes were rinsed 2× with DMEM, then filled with 3 ml of DMEM+10% FBS and incubated at 37° C. for 48 h. Nicotine, cytisine or DHβE was added at appropriate concentrations during the change of medium following 4 h incubation with Expressfect-plasmid DNA complexes.

α4-eGFPβ2-wt nAChRs = molecular target: T1, α4-eGFPβ2-wt nAChRs (Mus musculus, UniProt O70174+Q9ERK7); assay type: cell-based
T1 construct: expressed in transfected cells; host or cells: mouse Neuro-2a cells
T1 sequence (O70174 31-629): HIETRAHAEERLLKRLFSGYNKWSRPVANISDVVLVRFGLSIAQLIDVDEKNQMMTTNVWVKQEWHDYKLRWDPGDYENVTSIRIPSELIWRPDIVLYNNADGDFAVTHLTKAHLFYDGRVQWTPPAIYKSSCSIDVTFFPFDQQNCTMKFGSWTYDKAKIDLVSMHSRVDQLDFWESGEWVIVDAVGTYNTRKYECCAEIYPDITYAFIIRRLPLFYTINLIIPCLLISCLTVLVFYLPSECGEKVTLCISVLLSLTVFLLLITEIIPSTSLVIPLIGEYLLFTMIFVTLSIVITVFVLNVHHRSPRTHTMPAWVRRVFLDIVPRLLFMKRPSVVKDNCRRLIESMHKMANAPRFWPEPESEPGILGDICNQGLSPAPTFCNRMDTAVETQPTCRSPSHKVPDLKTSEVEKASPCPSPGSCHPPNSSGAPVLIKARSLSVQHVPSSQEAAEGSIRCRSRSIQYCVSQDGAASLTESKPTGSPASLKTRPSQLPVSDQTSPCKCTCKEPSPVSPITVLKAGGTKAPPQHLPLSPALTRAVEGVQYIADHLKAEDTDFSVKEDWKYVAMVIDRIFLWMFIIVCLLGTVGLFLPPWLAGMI
T1 sequence (Q9ERK7 26-501): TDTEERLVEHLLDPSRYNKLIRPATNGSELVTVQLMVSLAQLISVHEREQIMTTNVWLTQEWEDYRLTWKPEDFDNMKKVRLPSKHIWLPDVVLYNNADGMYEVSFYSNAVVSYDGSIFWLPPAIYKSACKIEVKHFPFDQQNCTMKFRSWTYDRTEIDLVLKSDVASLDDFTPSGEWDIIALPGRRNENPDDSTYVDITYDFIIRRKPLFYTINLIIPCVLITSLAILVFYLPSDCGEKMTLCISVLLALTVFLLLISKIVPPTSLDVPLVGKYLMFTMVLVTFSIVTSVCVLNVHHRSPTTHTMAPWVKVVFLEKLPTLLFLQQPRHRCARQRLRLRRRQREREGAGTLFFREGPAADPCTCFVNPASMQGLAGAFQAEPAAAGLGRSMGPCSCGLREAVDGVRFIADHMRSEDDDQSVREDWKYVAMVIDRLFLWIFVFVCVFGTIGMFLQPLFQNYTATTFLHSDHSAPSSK
Text: Details of the quantification method have been previously described (Srinivasan et al., 2011). Briefly, PM fluorescence was extracted as follows: Raw TIRF images were converted to background-subtracted images and the ER fluorescence was thresholded and selected. ER fluorescence was then subtracted from the original image to generate images with PM fluorescence signals. These procedures yielded a dataset of several hundred thousand pixel intensities over the 15-50 cells in each experimental group. Fluorescence intensities are simply the sum of pixel values for either the PM or the ER or the ER+PM (using whole TIRF footprint images). Mean PM fluorescence intensity was derived by dividing the total fluorescence intensity for each experimental group by the number of imaged cells and normalized to intensity of untreated cells. Ratios of fluorescence intensities for the whole TIRF footprint (ER+PM) to ER were used to determine the post-Golgi fraction of receptors. For PM integrated density measurements, rather than plotting SEMs (which would be indistinguishably small on the plots), we have used “error bars” to depict 99% confidence intervals based on a two-tailed t-test. Measurements from drug treated cells were normalized to values of untreated cells imaged on the same day. DHβE TIRF experiments were performed on a different day from nicotine and cytisine experiments.

α4β2 nAChRs [1] = molecular target: T2, α4β2 nAChRs (Mus musculus, UniProt O70174+Q9ERK7)
T2 sequence (O70174 31-629): as the sequence (O70174 31-629) above
T2 sequence (Q9ERK7 26-501): as the sequence (Q9ERK7 26-501) above
Text: For NFRET experiments, Neuro-2a cells were transfected with GaIT-eCFP+α4-mcherry+β2-eGFP subunits. GaIT-eCFP was used to label the TG, TGN (Schaub et al., 2006). Cells transfected with α4-mcherryβ2wt or α4wtβ2-eGFP nAChRs were included in every imaging session to control for pixel saturation and spectral bleedthrough. Live cells were imaged using an Eclipse C1si laser scanning confocal microscope. During image acquisition, cells were focused to a plane where the GaIT-eCFP fluorescence was best visualized. Images with emission spectra for eCFP, eGFP and mcherry were acquired in 5-nm bins between 470 and 620 nm. 439, 488 and 561 nm laser lines were used to excite eCFP, eGFP and mcherry respectively. Images were linearly unmixed using reference spectra for eCFP, eGFP and mcherry with emission maxima at 477, 508 and 608 nm. Reference spectra were acquired from Neuro-2a cells transfected with either GaIT-eCFP or α4-mcherryβ2wt or α4wtβ2-eGFP during the same imaging session. Linear unmixing was used to separate all three emission spectra from each image. Linearly unmixed images were compiled into donor spectral bleed-through stacks, acceptor spectral bleed-through stacks, and sample image stacks.
The PixFRET ImageJ plugin was used to determine the eGFP and mcherry spectral bleedthrough (BT) values and to calculate the net FRET (nF) (equation 1) and normalized FRET (NFRET) at each pixel. With the background and bleed-through corrections set, the nF for each pixel as described by equation 1 was calculated and the data were presented as 32-bit images. nF was divided by the square root of eGFP and mcherry intensities (equation 2) to obtain the normalized FRET (NFRET) value at each pixel. FRET normalization was used to control for large differences in fluorophore expression within subcellular regions and between different cells in a dish.
where, nF=net FRET, IFRET=mcherry sensitized emission with 488 nm excitation, IeGFP=eGFP emission with 488 nm excitation, BTeGFP=spectral bleedthrough of eGFP emission into mcherry emission spectra at 488 nm excitation, Imcherry=mcherry emission with 561 nm excitation and BTmcherry=spectral bleedthrough of mcherry emission into eGFP emission spectra at 561 nm excitation. IFRET, IeGFP and Imcherry were obtained from Neuro-2a cells transfected with GaIT-eCFP+α4-mcherry+β2-eGFP. BTeGFP and BTmcherry values were obtained from Neuro-2a cells transfected with α4-mcherry+β2wt and α4wt+β2-eGFP respectively.
Histograms of NFRET (x-axis) versus number of pixels (y-axis) of each imaged cell were compiled for either the whole cell sections or the TG, TGN ROIs, demarcated by intensity-based thresholding of GaIT-eCFP fluorescence. Frequency histograms obtained in this way (omitting values of zero) were merged for all cells in each experimental group and fitted to two Gaussian components such that a minimum goodness of fit (R^2) value of 0.995 was achieved. Ratios of area under the curve for the two Gaussian components with high and low mean NFRET values were used to determine changes in receptor stoichiometry between experimental groups: NFRET histograms were fitted to Gaussian components, yielding the total pixel area under either the A1 (low mean NFRET fit) or A2 (high mean NFRET fit) components. For quantitative measurements of stoichiometry, we compared the fractional area (FA) for the low NFRET component in each case as given by the following equation:
where, FA=fractional area, A1=area under the curve for low mean NFRET Gaussian component and A2=area under the curve for high mean NFRET Gaussian component.
Due to variability resulting from cell passage number, we imaged untreated control cells on the same day to compare and evaluate the effects of drug exposure on stoichiometry.

ER exit sites (ERES) = assay type: cell-based, mouse
Protocol: as §1
Neuro-2a cells were co-transfected with 500 ng each of α4-mcherry and β2-wt nAChR subunits and 250 ng of the ERES marker, Sec24D-eGFP. Each cell was focused to a plane where the maximum ERES were visualized. Sequential images of eGFP and mcherry fluorescence were obtained and linearly unmixed. For quantification, ERES regions of interest (ROIs) were demarcated using intensity-based thresholding and counted for each cell using the particle analysis feature in ImageJ version 1.44 or later. The fluorescence intensity was obtained for each ERES body within the cells and average ERES intensity was plotted. Error bars for ERES measurements are ±standard error of mean (SEM) and p values are based on a 2-tailed t test.

α4β2 nAChRs [2] = molecular target: T2, α4β2 nAChRs; conditions: chronic nicotine, 200 nM for 24 hr
Text: We used superecliptic phluorin (SEP) fused to the C-terminus of alpha4 nicotinic receptors (nAChRs) to examine the subcellular distribution and trafficking dynamics of receptors expressed in cortical neurons. SEP is a pH-sensitive version of green fluorescent protein (GFP) that undergoes 488 nm excitation at neutral pH (˜7.4), but loses this excitation maximum under acidic conditions (12). As a result, SEP neither photobleaches nor fluoresces at low pH but regains its fluorescence at neutral and basic pH. Tagging of α4 on the extracellular C-terminus results in the orientation of SEP on the lumenal side of most organelle types in the secretory pathway. While the endoplasmic reticulum (ER) and cis-Golgi have lumenal pH of ˜7.2 and ˜6.7, respectively, the lumen of both the trans-Golgi network and secretory vesicles is much more acidic (pH<6.5) (39). If one illuminates via total internal reflection (TIRF) microscopy, only those receptors resident in nearly neutral organelles close to the plasma membrane, or inserted in the plasma membrane, are visible within the excitation field. Thus, receptors in the later stages of the secretory pathway neither fluoresce nor photobleach due to the acidic environment. […]

Neuro-2a cells = assay type: cell-based, mouse
Protocol: Neuro-2a cells were transfected with α4-eGFP (500 ng)+β2wt (500 ng)+GaIT-mcherry (250 ng) or pDSred2-ER (100 ng) and cells were incubated for 48 h with appropriate concentrations of nicotine, cytisine or DHβE.
Two color fluorescence signals were separated with a dichroic and optical filters aligned in the emission path where green and red emission was separately aligned to the two halves of an EMCCD. Post-acquisition processing of images used Metamorph to demarcate TGN bodies and to extract number, size and intensity statistics.

α4β4 receptors = α4β4 receptors (Mus musculus, UniProt O70174+Q8R493); conditions: acute nicotine, 1 μM
Chain of α4β4 receptors (O70174 31-629): as the sequence (O70174 31-629) above
Chain of α4β4 receptors (Q8R493 21-495): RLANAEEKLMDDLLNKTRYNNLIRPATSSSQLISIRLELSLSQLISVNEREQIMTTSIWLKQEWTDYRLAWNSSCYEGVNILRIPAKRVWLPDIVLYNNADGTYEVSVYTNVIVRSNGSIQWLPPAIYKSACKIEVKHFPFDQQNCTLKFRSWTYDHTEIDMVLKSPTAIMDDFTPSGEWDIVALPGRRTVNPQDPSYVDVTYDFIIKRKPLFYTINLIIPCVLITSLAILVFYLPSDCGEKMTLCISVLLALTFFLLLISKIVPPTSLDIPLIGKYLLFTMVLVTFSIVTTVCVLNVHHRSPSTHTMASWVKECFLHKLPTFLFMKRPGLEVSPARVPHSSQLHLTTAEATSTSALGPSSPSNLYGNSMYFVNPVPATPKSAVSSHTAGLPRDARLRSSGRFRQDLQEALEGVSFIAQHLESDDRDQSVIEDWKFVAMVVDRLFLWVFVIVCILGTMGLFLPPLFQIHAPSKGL
Protocol: Additional experiments examined the effect of acute nicotine at a higher concentration (1 μM) on α4β4 receptors as well.

[3] = octanol and water, PubChem Compound; cited from earlier work

## CN1CCCC1c1cccnc1 (centres unmarked) [Nicotine, nicotine]
ATF6
  reduction in the ratio of nuclear to whole cell ATF6-eGFP fluorescence: ~25%
α4-eGFPβ2-wt nAChRs
  effect on the footprint/ER ratio (in words): reduction
  increase in PM-localized nAChRs: 2 fold
  reduction of the footprint/ER ratio: ~2 fold
α4β2 nAChRs [1]
  TG+TGN FA (fractional area of low NFRET component): 0.80
  whole cell FA (fractional area of low NFRET component): 0.74
ER exit sites (ERES)
  increase in ERES fluorescence / formation of ERES: ~2 fold
α4β2 nAChRs [2]
  increase in the number of insertion events, α4β2 nAChRs: ~2 fold
Neuro-2a cells
  TGN intensity: no effect
  effect on the average intensity of TGN bodies (in words): did not affect
  effect on the number of TGN bodies (in words): increased
  increase in the average number of TGN bodies per cell: ~2 fold
α4β4 receptors
  Fnic/F0 (SEP fluorescence, receptors in the membrane): 65%+/−0.03
[3]
  logP: 1.1
